Measurements taken from patent US20050112573A1, “Method of detecting toxic substance” (priority 2001, published 2005).

System: yeast genes (level of expressed mRNA)
Assay: DNA chip analysis of expressed mRNA of yeast genes after 2 h culture with a toxic chemical substance
Format: cell-based, Saccharomyces cerevisiae S288C
Conditions: for The level of expressed mRNA in the presence of chemical substance/ (ratio to absence of chemical substance): stress protein genes, DNA chip
Outline: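 S. cerevisiae S288C in YPD at 25 °C was exposed at log phase for 2 h to a growth-inhibiting, non-lethal concentration of the chemical. Poly(A) mRNA was reverse-transcribed with Cy3- or Cy5-dUTP and hybridized to a whole-genome yeast DNA chip (65 °C, >12 h). Values are fluorescence ratios versus untreated cells.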

SMILES: C[S+](C)[O-] [(15), dimethylsulfoxide]
- The level of expressed mRNA in the presence of chemical substance/The level of expressed mRNA in the absence of chemical substance (yeast gene YJL073W): 2.6
- The level of expressed mRNA in the presence of chemical substance/The level of expressed mRNA in the absence of chemical substance (yeast gene YJL089W): 6.4
- The level of expressed mRNA in the presence of chemical substance/ (ratio to absence), gene YJL096W (yeast gene YJL096W, mitochondria-located protein genes, 2 h culture with chemical): 1.0
- The level of expressed mRNA in the presence of chemical substance/The level of expressed mRNA in the absence of chemical substance (yeast gene YJL116C): 1.0
- The level of expressed mRNA in the presence of chemical substance/ (ratio to absence of chemical substance) (yeast gene YJL158C): 1.7
- The level of expressed mRNA in the presence of chemical substance/ (in its absence), gene YJL167W (yeast gene YJL167W, ratio of DNA chip fluorescence intensity to that without chemical substance): 1.6
- The level of expressed mRNA in the presence of chemical substance/ (ratio to absence), gene YJL180C (yeast gene YJL180C, mitochondria-located protein genes, 2 h culture with chemical): 0.6
- The level of expressed mRNA in the presence of chemical substance/ (in its absence), gene YJL216C (yeast gene YJL216C, ratio of DNA chip fluorescence intensity to that without chemical substance): 1.2
- The level of expressed mRNA in the presence of chemical substance/The level of expressed mRNA in the absence of chemical substance (yeast gene YJR004C): 3.2
- The level of expressed mRNA in the presence of chemical substance/The level of expressed mRNA in the absence of chemical substance (yeast gene YJR086W): 2.0
- The level of expressed mRNA in the presence of chemical substance/ (ratio to absence of chemical substance) (yeast gene YJR090C): 1.6
- The level of expressed mRNA in the presence of chemical substance/The level of expressed mRNA in the absence of chemical substance (yeast gene YKL008C): 1.3
- The level of expressed mRNA in the presence of chemical substance/The level of expressed mRNA in the absence of chemical substance (yeast gene YKL013C): 1.2
- The level of expressed mRNA in the presence of chemical substance/The level of expressed mRNA in the absence of chemical substance (yeast gene YKL039W): 3.1
- The level of expressed mRNA in the presence of chemical substance/The level of expressed mRNA in the absence of chemical substance (yeast gene YKL041W): 1.0
- The level of expressed mRNA in the presence of chemical substance/The level of expressed mRNA in the absence of chemical substance (yeast gene YKL096W): 2.3
- The level of expressed mRNA in the presence of chemical substance/The level of expressed mRNA in the absence of chemical substance (yeast gene YKL139W): 1.0
- The level of expressed mRNA in the presence of chemical substance/ (ratio to absence of chemical substance) (yeast gene YKL164C): 1.2
- The level of expressed mRNA in the presence of chemical substance/The level of expressed mRNA in the absence of chemical substance (yeast gene YKL165C): 2.1
- The level of expressed mRNA in the presence of chemical substance/The level of expressed mRNA in the absence of chemical substance (yeast gene YKL193C): 1.2
- The level of expressed mRNA in the presence of chemical substance/ (in its absence), gene YKR009C (yeast gene YKR009C, ratio of DNA chip fluorescence intensity to that without chemical substance): 1.0
- The level of expressed mRNA in the presence of chemical substance/The level of expressed mRNA in the absence of chemical substance (yeast gene YKR014C): 1.4
- The level of expressed mRNA in the presence of chemical substance/ (in its absence), gene YKR034W (yeast gene YKR034W, ratio of DNA chip fluorescence intensity to that without chemical substance): 1.7
- The level of expressed mRNA in the presence of chemical substance/ (ratio to absence of chemical substance) (yeast gene YKR053C): 0.3
- The level of expressed mRNA in the presence of chemical substance/ in its absence, gene YKR058W (yeast gene YKR058W, energy system protein genes, 2 h culture with the chemical, ratio to control without chemical): 0.5
- The level of expressed mRNA in the presence of chemical substance/ (in its absence), gene YLR006C (yeast gene YLR006C, ratio of DNA chip fluorescence intensity to that without chemical substance): 0.9
- The level of expressed mRNA in the presence of chemical substance/ (ratio to absence of chemical substance) (yeast gene YLR006C): 0.9
- The level of expressed mRNA in the presence of chemical substance/The level of expressed mRNA in the absence of chemical substance (yeast gene YLR093C): 0.9
- The level of expressed mRNA in the presence of chemical substance/The level of expressed mRNA in the absence of chemical substance (yeast gene YLR120C): 2.7
- The level of expressed mRNA in the presence of chemical substance/The level of expressed mRNA in the absence of chemical substance (yeast gene YLR136C): 2.1
- The level of expressed mRNA in the presence of chemical substance/The level of expressed mRNA in the absence of chemical substance (yeast gene YLR178C): 2.3
- The level of expressed mRNA in the presence of chemical substance/The level of expressed mRNA in the absence of chemical substance (yeast gene YLR250W): 2.6
- The level of expressed mRNA in the presence of chemical substance/ in its absence, gene YLR295C (yeast gene YLR295C, energy system protein genes, 2 h culture with the chemical, ratio to control without chemical): 0.5
- The level of expressed mRNA in the presence of chemical substance/ (ratio to absence), gene YLR295C (yeast gene YLR295C, mitochondria-located protein genes, 2 h culture with chemical): 0.5
- The level of expressed mRNA in the presence of chemical substance/The level of expressed mRNA in the absence of chemical substance (yeast gene YLR327C): 0.8
- The level of expressed mRNA in the presence of chemical substance/ (in its absence), gene YLR351C (yeast gene YLR351C, ratio of DNA chip fluorescence intensity to that without chemical substance): 1.2
- The level of expressed mRNA in the presence of chemical substance/The level of expressed mRNA in the absence of chemical substance (yeast gene YLR356W): 2.8
- The level of expressed mRNA in the presence of chemical substance/The level of expressed mRNA in the absence of chemical substance (yeast gene YLR362W): 1.3
- The level of expressed mRNA in the presence of chemical substance/ (in its absence), gene YLR375W (yeast gene YLR375W, ratio of DNA chip fluorescence intensity to that without chemical substance): 1.3
- The level of expressed mRNA in the presence of chemical substance/The level of expressed mRNA in the absence of chemical substance (yeast gene YLR391W): 3.9
- The level of expressed mRNA in the presence of chemical substance/The level of expressed mRNA in the absence of chemical substance (yeast gene YLR429W): 1.5
- The level of expressed mRNA in the presence of chemical substance/ in its absence, gene YML129C (yeast gene YML129C, energy system protein genes, 2 h culture with the chemical, ratio to control without chemical): 1.1
- The level of expressed mRNA in the presence of chemical substance/ (ratio to absence), gene YML129C (yeast gene YML129C, mitochondria-located protein genes, 2 h culture with chemical): 1.1
- The level of expressed mRNA in the presence of chemical substance/The level of expressed mRNA in the absence of chemical substance (yeast gene YMR004W): 1.3
- The level of expressed mRNA in the presence of chemical substance/ (ratio to absence), gene YMR023C (yeast gene YMR023C, mitochondria-located protein genes, 2 h culture with chemical): 0.7
- The level of expressed mRNA in the presence of chemical substance/The level of expressed mRNA in the absence of chemical substance (yeast gene YMR094W): 6.6
- The level of expressed mRNA in the presence of chemical substance/The level of expressed mRNA in the absence of chemical substance (yeast gene YMR104C): 2.5
- The level of expressed mRNA in the presence of chemical substance/ (ratio to absence of chemical substance) (yeast gene YMR186W): 1.3
- The level of expressed mRNA in the presence of chemical substance/The level of expressed mRNA in the absence of chemical substance (yeast gene YMR219W): 1.7
- The level of expressed mRNA in the presence of chemical substance/The level of expressed mRNA in the absence of chemical substance (yeast gene YMR226C): 2.0
- The level of expressed mRNA in the presence of chemical substance/ in its absence, gene YMR267W (yeast gene YMR267W, energy system protein genes, 2 h culture with the chemical, ratio to control without chemical): 0.9
- The level of expressed mRNA in the presence of chemical substance/ (ratio to absence), gene YMR267W (yeast gene YMR267W, mitochondria-located protein genes, 2 h culture with chemical): 0.9
- The level of expressed mRNA in the presence of chemical substance/ in its absence, gene YMR267W (yeast gene YMR267W, ratio of DNA chip fluorescence intensity to that without chemical substance): 0.9
- The level of expressed mRNA in the presence of chemical substance/The level of expressed mRNA in the absence of chemical substance (yeast gene YMR275C): 1.7
- The level of expressed mRNA in the presence of chemical substance/The level of expressed mRNA in the absence of chemical substance (yeast gene YMR276W): 3.3
- The level of expressed mRNA in the presence of chemical substance/ (in its absence), gene YMR278W (yeast gene YMR278W, ratio of DNA chip fluorescence intensity to that without chemical substance): 1.8
- The level of expressed mRNA in the presence of chemical substance/ (in its absence), gene YMR293C (yeast gene YMR293C, ratio of DNA chip fluorescence intensity to that without chemical substance): 0.7
